What all share (assay): Bliss excess, mean over the matrix (fraction); higher = more synergy
The test system of experiment [1] is 23132-87 (Gastric Carcinoma). The method, boiled down: (§1)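 Cell lines in DMEM/F12 or RPMI with 10% FBS were plated in 1536-well plates, held 24 hours at 37°C, 5% CO2, then given two-drug dose matrices for 72 hours (DMSO typically 0.2%). Viability was read by CellTiter-Glo 2.0 luminescence and scaled as inhibition from 0 (vehicle wells) to 1 (blank wells). Combination Emax is the second-highest inhibition in the matrix; Bliss excess is observed combination effect minus expected EA + EB − EA·EB, EA and EB being single-agent effects.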

The subject of experiment [2] is NCI-H2342 (Lung Adenocarcinoma). The method in brief:
as §1

Experiment [3] relates to PANC-03-27 (Pancreatic Carcinoma). The method in brief:
as §1

Experiment [4] concerns PC-3_[JPC-3] (Lung Adenocarcinoma). The method, boiled down:
as §1

Experiment [5] concerns REH (B-Lymphoblastic Leukemia). The method, boiled down:
as §1

The subject of experiment [6] is SU-DHL-10 (B-Cell Non-Hodgkin's Lymphoma). The method, boiled down:
as §1

In the case of `CN(CCO)CC[C@H](CSc1ccccc1)Nc1ccc(S(=O)(=O)NC(=O)c2ccc(N3CCC([C@@H](O)c4ccccc4-c4ccc(Cl)cc4)CC3)cc2)cc1S(=O)(=O)C(F)(F)F` [AZD4320] + C[C@@H](Nc1cc(F)cc(F)c1)c1cc(C(=O)N(C)C)cc2c(=O)cc(N3CCOCC3)oc12 [AZD8186] (first compound max 1 µM, 7x7, partner max 3 µM), the Bliss excess in experiment [1] was -0.031; in experiment [2], -0.0065; in experiment [3] it was 0.0439; in experiment [4], -0.0176; in experiment [5], 0.0353; in experiment [6], 0.0092.

Take `CN(CCO)CC[C@H](CSc1ccccc1)Nc1ccc(S(=O)(=O)NC(=O)c2ccc(N3CCC([C@@H](O)c4ccccc4-c4ccc(Cl)cc4)CC3)cc2)cc1S(=O)(=O)C(F)(F)F` [AZD4320] + Cc1cc2ncnn2cc1Nc1ncc2c(n1)n(C1CCOCC1)c(=O)n2C [AZD7648] (first compound max 1 µM, 7x7, partner max 10 µM): the Bliss excess in experiment [1] was -0.0311; in experiment [2], -0.0475; in experiment [3], -0.061; in experiment [4], -0.0635; in experiment [5], 0.0041; in experiment [6] it was 0.0212.

Regarding `Cc1c2c(nn1C)CSCc1cc(n(C)n1)CSc1cc(c3ccccc3c1)OCCCc1c(C(=O)O)n(C)c3c-2c(Cl)ccc13` [AZD5991] + C1CN(CCC1(C(=O)N[C@@H](CCO)C2=CC=C(C=C2)Cl)N)C3=NC=NC4=C3C=CN4 [Capivasertib] (first compound max 1 µM, 7x7, partner max 3 µM), the Bliss excess in experiment [1] is -0.0492; in experiment [2] it was 0.0351; in experiment [3], 0.002; in experiment [4], -0.0062; in experiment [5], -0.0557; in experiment [6], -0.0047.

Consider `Cc1c2c(nn1C)CSCc1cc(n(C)n1)CSc1cc(c3ccccc3c1)OCCCc1c(C(=O)O)n(C)c3c-2c(Cl)ccc13` [AZD5991] + C=CCn1c(=O)c2cnc(Nc3ccc(N4CCN(C)CC4)cc3)nc2n1-c1cccc(C(C)(C)O)n1 [AZD1775] (first compound max 1 µM, partner max 1 µM), for which the Bliss excess in experiment [1] is 0.0274; in experiment [2], -0.0144; in experiment [3], 0.0186; in experiment [4], 0.005; in experiment [5], -0.112; in experiment [6] it was 0.0259.

On to `Cc1c2c(nn1C)CSCc1cc(n(C)n1)CSc1cc(c3ccccc3c1)OCCCc1c(C(=O)O)n(C)c3c-2c(Cl)ccc13` [AZD5991] + CC1(C)CCC(CN2CCN(c3ccc(C(=O)NS(=O)(=O)c4ccc(NCC5CCOCC5)c([N+](=O)[O-])c4)c(Oc4cnc5[nH]ccc5c4)c3)CC2)=C(c2ccc(Cl)cc2)C1 [Venetoclax] (first compound max 1 µM, 7x7, partner max 1 µM), for which the Bliss excess in experiment [1] was 0.0019; in experiment [2], -0.0599; in experiment [3] it was -0.0397; in experiment [4], -0.0503; in experiment [5], 0.206; in experiment [6], -0.0173.

Consider `Cc1c2c(nn1C)CSCc1cc(n(C)n1)CSc1cc(c3ccccc3c1)OCCCc1c(C(=O)O)n(C)c3c-2c(Cl)ccc13` [AZD5991] + CCN(CCO)CCCOc1ccc2c(Nc3cc(CC(=O)Nc4cccc(F)c4)[nH]n3)ncnc2c1 [AZD2811] (first compound max 1 µM, 7x7, partner max 1 µM), for which the Bliss excess in experiment [1] was -0.0075; in experiment [2], -0.0613; in experiment [3], 0.0566; in experiment [4] it was -0.0049; in experiment [5] it was 0.0422; in experiment [6], -0.0133.

Regarding `Cc1c2c(nn1C)CSCc1cc(n(C)n1)CSc1cc(c3ccccc3c1)OCCCc1c(C(=O)O)n(C)c3c-2c(Cl)ccc13` [AZD5991] + CN(C)CCCOc1ccc(-c2ccc3ncc4c(c3c2)n(C2CCOCC2)c(=O)n4C)cn1 [AZD0156] (first compound max 1 µM, 7x7, partner max 1 µM), the Bliss excess in experiment [1] is -0.0643; in experiment [2], -0.016; in experiment [3] it was -0.0201; in experiment [4], -0.0156; in experiment [5], -0.0321; in experiment [6], -0.0258.

On to `Cc1c2c(nn1C)CSCc1cc(n(C)n1)CSc1cc(c3ccccc3c1)OCCCc1c(C(=O)O)n(C)c3c-2c(Cl)ccc13` [AZD5991] + C[C@@H]1COCCN1C2=NC(=NC(=C2)C3(CC3)[S@](=N)(=O)C)C4=C5C=CNC5=NC=C4 [AZD6738] (first compound max 1 µM, 7x7, partner max 10 µM), for which the Bliss excess in experiment [1] is -0.009; in experiment [2], 0.0291; in experiment [3], 0.0059; in experiment [4], 0.0547; in experiment [5] it was -0.0519; in experiment [6], -0.0128.

On to `Cc1c2c(nn1C)CSCc1cc(n(C)n1)CSc1cc(c3ccccc3c1)OCCCc1c(C(=O)O)n(C)c3c-2c(Cl)ccc13` [AZD5991] + C[C@@H](Nc1cc(F)cc(F)c1)c1cc(C(=O)N(C)C)cc2c(=O)cc(N3CCOCC3)oc12 [AZD8186] (first compound max 1 µM, 7x7, partner max 3 µM), for which the Bliss excess in experiment [1] is -0.0603; in experiment [2], -0.0027; in experiment [3], -0.0432; in experiment [4] it was 0.0031; in experiment [5], -0.024; in experiment [6], 0.0239.

With `Cc1c2c(nn1C)CSCc1cc(n(C)n1)CSc1cc(c3ccccc3c1)OCCCc1c(C(=O)O)n(C)c3c-2c(Cl)ccc13` [AZD5991] + Cc1cc2ncnn2cc1Nc1ncc2c(n1)n(C1CCOCC1)c(=O)n2C [AZD7648] (first compound max 1 µM, 7x7, partner max 10 µM), the Bliss excess in experiment [1] was -0.0679; in experiment [2] it was -0.0535; in experiment [3], -0.0286; in experiment [4], -0.0306; in experiment [5] it was -0.0082; in experiment [6], 0.0328.

`Cc1c2c(nn1C)CSCc1cc(n(C)n1)CSc1cc(c3ccccc3c1)OCCCc1c(C(=O)O)n(C)c3c-2c(Cl)ccc13` [AZD5991] + Cn1cnc2c(F)c(Nc3ccc(Br)cc3Cl)c(C(=O)NOCCO)cc21 [Selumetinib] (first compound max 1 µM, 7x7, partner max 3 µM): the Bliss excess is 0.0334 in experiment [1]; -0.0673 in experiment [2]; -0.0414 in experiment [3]; -0.0477 in experiment [4]; -0.0302 in experiment [5]; -0.021 in experiment [6].

Regarding `C[C@@H]1COCCN1c1cc(C2([S@](C)(=N)=O)CC2)nc(-c2ccnc3[nH]ccc23)n1` [AZD6738] + O=C(c1cc(Cc2n[nH]c(=O)c3ccccc23)ccc1F)N1CCN(C(=O)C2CC2)CC1 [Olaparib] (first compound max 10 µM, 7x7, partner max 10 µM), the Bliss excess in experiment [1] is 0.0507; in experiment [2], -0.0089; in experiment [3], 0.0141; in experiment [4], 0.0112; in experiment [5], 0.0021; in experiment [6], -0.0235.

`Cc1cc2ncnn2cc1Nc1ncc2c(n1)n(C1CCOCC1)c(=O)n2C` [AZD7648] + C=CCn1c(=O)c2cnc(Nc3ccc(N4CCN(C)CC4)cc3)nc2n1-c1cccc(C(C)(C)O)n1 [AZD1775] (first compound max 10 µM, partner max 1 µM): the Bliss excess was -0.0401 in experiment [1]; -0.0023 in experiment [2]; -0.048 in experiment [3]; 0.0063 in experiment [4]; -0.06 in experiment [5]; -0.0191 in experiment [6].

For the compound `Cc1cc2ncnn2cc1Nc1ncc2c(n1)n(C1CCOCC1)c(=O)n2C` [AZD7648] + CCN(CCO)CCCOc1ccc2c(Nc3cc(CC(=O)Nc4cccc(F)c4)[nH]n3)ncnc2c1 [AZD2811] (first compound max 10 µM, 7x7, partner max 1 µM), the Bliss excess was -0.0151 in experiment [1]; -0.0084 in experiment [2]; -0.0255 in experiment [3]; -0.0044 in experiment [4]; -0.0541 in experiment [5]; -0.0765 in experiment [6].

Regarding `Cc1cc2ncnn2cc1Nc1ncc2c(n1)n(C1CCOCC1)c(=O)n2C` [AZD7648] + CN(C)CCCOc1ccc(-c2ccc3ncc4c(c3c2)n(C2CCOCC2)c(=O)n4C)cn1 [AZD0156] (first compound max 10 µM, 7x7, partner max 1 µM), the Bliss excess was -0.0108 in experiment [1]; -0.0237 in experiment [2]; 0.0421 in experiment [3]; -0.0019 in experiment [4]; -0.113 in experiment [5]; 0.001 in experiment [6].

On to `Cc1cc2ncnn2cc1Nc1ncc2c(n1)n(C1CCOCC1)c(=O)n2C` [AZD7648] + C[C@@H]1COCCN1C2=NC(=NC(=C2)C3(CC3)[S@](=N)(=O)C)C4=C5C=CNC5=NC=C4 [AZD6738] (first compound max 10 µM, 7x7, partner max 10 µM), for which the Bliss excess in experiment [1] was -0.0027; in experiment [2], 0.0271; in experiment [3] it was 0.0016; in experiment [4] it was 0.0627; in experiment [5], -0.0088; in experiment [6], -0.0398.

`Cc1cc2ncnn2cc1Nc1ncc2c(n1)n(C1CCOCC1)c(=O)n2C` [AZD7648] + O=C(c1cc(Cc2n[nH]c(=O)c3ccccc23)ccc1F)N1CCN(C(=O)C2CC2)CC1 [Olaparib] (first compound max 10 µM, 7x7, partner max 10 µM): the Bliss excess was 0.003 in experiment [1]; -0.0548 in experiment [2]; -0.0149 in experiment [3]; -0.0148 in experiment [4]; -0.0373 in experiment [5]; -0.0164 in experiment [6].

In the case of `COc1cccc2c1C(=O)c1c(O)c3c(c(O)c1C2=O)C[C@@](O)(C(=O)CO)C[C@@H]3O[C@H]1C[C@H](N)[C@H](O)[C@H](C)O1` [Doxorubicin] + Cc1cc2ncnn2cc1Nc1ncc2c(n1)n(C1CCOCC1)c(=O)n2C [AZD7648] (first compound max 1 µM, 7x7, partner max 10 µM), the Bliss excess in experiment [1] was 0.049; in experiment [2], 0.0128; in experiment [3], 0.0557; in experiment [4] it was -0.027; in experiment [5], 0.177; in experiment [6], 0.0982.

(Values after the supplement of paper PMC11061612.)
